Data from ChEMBL document CHEMBL1141209, “Carbonic anhydrase inhibitors: inhibition of the human isozymes I, II, VA, and IX with a library of substituted difluoromethanesulfonamides” (Bioorg Med Chem Lett, 2005).

Tests used:
Carbonic anhydrase 2 = Carbonic anhydrase 2 (Homo sapiens, UniProt P00918)
Description: Inhibition of recombinant human cytosolic isozyme CA II

Carbonic anhydrase 1 = Carbonic anhydrase 1 (Homo sapiens, UniProt P00915)
Description: Inhibition of recombinant human cytosolic isozyme CA I

Carbonic anhydrase 9 = Carbonic anhydrase 9 (Homo sapiens, UniProt Q16790)
Description: Inhibition of cloned human transmembrane, tumor-associated isozyme CA IX

[1] = molecular target: Carbonic anhydrase 5A, mitochondrial (Homo sapiens, UniProt P35218)
Carbonic anhydrase 5A, mitochondrial, sequence (P35218 whole entry): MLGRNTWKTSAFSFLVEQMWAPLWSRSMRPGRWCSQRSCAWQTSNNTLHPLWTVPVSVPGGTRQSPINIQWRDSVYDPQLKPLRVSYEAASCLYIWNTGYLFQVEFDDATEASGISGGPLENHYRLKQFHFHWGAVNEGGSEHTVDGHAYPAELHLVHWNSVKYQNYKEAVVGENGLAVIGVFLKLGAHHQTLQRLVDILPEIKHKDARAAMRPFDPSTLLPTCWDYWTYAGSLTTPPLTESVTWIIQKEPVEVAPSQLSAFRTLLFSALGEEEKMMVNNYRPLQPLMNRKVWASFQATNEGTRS
Description: Inhibition of recombinant human mitochondrial isozyme CA VA

Carbonic anhydrase 1, sequence (P00915 whole entry): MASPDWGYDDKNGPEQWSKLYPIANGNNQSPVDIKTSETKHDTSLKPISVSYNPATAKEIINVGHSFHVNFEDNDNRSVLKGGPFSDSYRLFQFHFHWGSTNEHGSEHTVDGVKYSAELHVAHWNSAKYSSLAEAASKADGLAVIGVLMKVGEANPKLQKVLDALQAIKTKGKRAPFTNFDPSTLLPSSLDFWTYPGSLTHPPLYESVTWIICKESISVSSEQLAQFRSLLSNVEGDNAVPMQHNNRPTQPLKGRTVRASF

Ki (Carbonic anhydrase 2) [nM] | Ki (Carbonic anhydrase 1) [nM] | Ki (Carbonic anhydrase 9) [nM] | Ki [1] [nM] | Structure (SMILES)
670 | 96 | 1730 | 129 | C[C@]12CC[C@@H]3c4ccc(C(F)(F)S(N)(=O)=O)cc4CC[C@H]3[C@@H]1CCC2=O
80 | 116 | 208 | 1460 | C[C@]12CC[C@@H]3c4ccc(CS(N)(=O)=O)cc4CC[C@H]3[C@@H]1CCC2=O
 |  | 195 |  | Cc1cc(=O)oc2cc(C(F)(F)S(N)(=O)=O)ccc12
 |  | 240 |  | Cc1cc(=O)oc2cc(CS(N)(=O)=O)ccc12
 |  | 250 |  | Cc1ccc(C(F)(F)S(N)(=O)=O)cc1
 |  | 9280 |  | NS(=O)(=O)C(F)(F)c1ccccc1Br
 |  | 1490 |  | NS(=O)(=O)C(F)(F)c1cccc(Br)c1
 |  | 2420 |  | NS(=O)(=O)C(F)(F)c1ccc([N+](=O)[O-])cc1
 |  | 7730 |  | NS(=O)(=O)C(F)(F)c1ccc(Br)cc1
 |  | 8500 |  | NS(=O)(=O)C(F)(F)c1ccccc1 [PHENYLDIFLUOROMETHANESULFONAMIDE]
 |  | 9300 |  | NS(=O)(=O)Cc1ccccc1 [PHENYLMETHANESULFONAMIDE]

Structure (SMILES) | Ki (Carbonic anhydrase 2) [nM] | Ki (Carbonic anhydrase 1) [nM] | Ki (Carbonic anhydrase 9) [nM] | Ki [1] [nM]
Cc1cc(=O)oc2cc(OS(N)(=O)=O)ccc12 | 25 |  |  | 
